Data taken from the supplement of paper PMC12317010.
Structures can show the parent of a compound that is named as a salt.

Test: collision cross section in nitrogen (drift tube, single-field); higher = larger gas-phase ion size
[1] = ion type: [M+H], ion source: APCI, ion mode: Positive
[2] = ion type: [M+H], ion source: ESI, ion mode: Positive
[3] = ion type: [M+Na], ion source: ESI, ion mode: Positive
[4] = ion type: [M-H], ion source: ESI, ion mode: Negative
[5] = ion source: APCI, ion mode: Positive, ion type: [M]+ (permanent cation)
[6] = ion source: ESI, ion mode: Positive, ion type: [M]+ (permanent cation)
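Also: chemical standards at 10 µM analysed by drift tube IMS-QTOF MS in about 3.95 torr nitrogen, mean of duplicate injections differing ≤1%, mass error below 10 ppm.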

| Compound | collision cross section in nitrogen [1] [Å²] | collision cross section in nitrogen [2] [Å²] | collision cross section in nitrogen [3] [Å²] | collision cross section in nitrogen [4] [Å²] | further results |
| --- | --- | --- | --- | --- | --- |
| NC(=O)N1c2ccccc2C=Cc2ccccc21 [Carbamazepine] | 150.5 | 150.1 | 161.1 | – | – |
| c1ccc2c(c1)[nH]c1ccccc12 [Carbazole] | – | – | – | 132.9 | collision cross section in nitrogen (ion type: [M+], ion source: APCI, ion mode: Positive): 130.2 Å² |
| COC(=O)Nc1nc2ccccc2[nH]1 [Carbendazim] | 138.7 | 139 | – | – | – |
| CCNC(=O)[C@@H](C)OC(=O)Nc1ccccc1 [Carbetamide] | – | – | 167.4 | – | – |
| CCOC(=O)n1ccn(C)c1=S [Carbimazole] | – | – | 148 | – | – |
| CNC(=O)Oc1cccc2c1OC(C)(C)C2 [Carbofuran] | – | – | 157.8 | – | – |
| N#CC(C#N)=NNc1cccc(Cl)c1 [Carbonyl cyanide chlorophenylhydrazone] | – | 142.8 | – | – | – |
| CCCCN(CCCC)SN(C)C(=O)Oc1cccc2c1OC(C)(C)C2 [Carbosulfan] | 188.3 | 188.3 | 204.7 | – | – |
| CC1=C(C(=O)Nc2ccccc2)SCCO1 [Carboxin] | 151.4 | 153 | 165.7 | 155.8 | – |
| CCCCNC(=O)NS(=O)(=O)c1ccc(N)cc1 [Carbutamide] | – | – | 175.6 | 165 | – |
| CCOC(=O)C(Cl)Cc1cc(-n2nc(C)n(C(F)F)c2=O)c(F)cc1Cl (stereo not drawn) [Carfentrazone-ethyl] | – | 180.3 | 187.9 | – | – |
| CC(C)c1ccc(C(=O)N=C(N)N)cc1S(C)(=O)=O [Cariporide mesylate] | 175.1 | 173.6 | 178.2 | 169.3 | – |
| CCCC(C)(COC(N)=O)COC(=O)NC(C)C (stereo not drawn) [Carisoprodol] | – | – | 172.2 | – | – |
| Cc1c(C(=O)O)c(O)cc2c1C(=O)c1c(O)c([C@@H]3O[C@H](CO)[C@@H](O)[C@H](O)[C@H]3O)c(O)c(O)c1C2=O [Carminic acid] | – | 209.1 | 217.8 | 208.9 | – |
| CC1C(C)(C)C2=C(C(=O)CCC2)C1(C)C (stereo not drawn) [Cashmeran] | – | – | – | 154.6 | – |
| Cc1ccc(-c2cc(C(F)(F)F)nn2-c2ccc(S(N)(=O)=O)cc2)cc1 [Celecoxib] | – | 187.3 | – | 190.8 | – |
| O=C(O)COCCN1CCN(C(c2ccccc2)c2ccc(Cl)cc2)CC1 (stereo not drawn) [Cetirizine hydrochloride (1:2)] | 200 | 200.3 | 195.6 | 195 | – |
| CCCCCCCCCCCCCCCC[n+]1ccccc1 [Cetylpyridinium bromide] | – | – | – | – | collision cross section in nitrogen [5]: 193.4 Å²; collision cross section in nitrogen [6]: 194.3 Å² |
| CCCCCCCCCCCCCCCC[n+]1ccccc1 [Cetylpyridinium chloride] | – | – | – | – | collision cross section in nitrogen [5]: 193.3 Å²; collision cross section in nitrogen [6]: 193.7 Å² |

| Compound | collision cross section in nitrogen [1] [Å²] | collision cross section in nitrogen [2] [Å²] | collision cross section in nitrogen [3] [Å²] | collision cross section in nitrogen [4] [Å²] | further results |
| --- | --- | --- | --- | --- | --- |
| C=C(C)C(=O)Nc1ccc(Cl)c(Cl)c1 [Chloranocryl] | – | – | – | 145.8 | – |
| CON(C)C(=O)Nc1ccc(Br)c(Cl)c1 [Chlorbromuron] | – | – | – | 152.8 | – |
| Cc1cc(Cl)ccc1N=CN(C)C [Chlordimeform hydrochloride] | 146.2 | – | – | – | – |
| Cc1cc(Cl)ccc1N=CN(C)C [Chlordimeform] | 145.6 | 146.4 | – | – | – |
| O=C(O)C1C(C(=O)O)C2(Cl)C(Cl)=C(Cl)C1(Cl)C2(Cl)Cl (stereo not drawn) [Chlorendic acid] | – | – | – | 159 | – |
| CCOP(=O)(OCC)OC(=CCl)c1ccc(Cl)cc1Cl [Chlorfenvinphos] | 168.7 | 170.1 | 181 | – | – |
| O=C(NC(=O)c1c(F)cccc1F)Nc1cc(Cl)c(Oc2ncc(C(F)(F)F)cc2Cl)c(Cl)c1 [Chlorfluazuron] | – | 221.8 | 225.6 | 224.4 | – |
| N=C(NCCCCCCNC(=N)NC(=N)Nc1ccc(Cl)cc1)NC(=N)Nc1ccc(Cl)cc1 [Chlorhexidine diacetate] | 222.8 | 224.1 | 228.3 | 233.6 | – |
| N=C(NCCCCCCNC(=N)NC(=N)Nc1ccc(Cl)cc1)NC(=N)Nc1ccc(Cl)cc1 [Chlorhexidine dihydrochloride] | 222.7 | 222.9 | 227.5 | 233.2 | – |
| N=C(NCCCCCCNC(=N)NC(=N)Nc1ccc(Cl)cc1)NC(=N)Nc1ccc(Cl)cc1 [Chlorhexidine] | 222.9 | 222.4 | 226.5 | – | – |
| Nc1cnn(-c2ccccc2)c(=O)c1Cl [Chloridazon] | 143.6 | 144 | 158 | 143.7 | – |
| CN1C(=O)CCS(=O)(=O)C1c1ccc(Cl)cc1 (stereo not drawn) [Chlormezanone] | – | – | – | 154.1 | – |
| O=C1c2ccccc2C(=O)C1C(=O)C(c1ccccc1)c1ccc(Cl)cc1 (stereo not drawn) [Chlorophacinone] | – | – | – | 193.2 | – |
| CN(C)C(=O)Nc1ccc(Oc2ccc(Cl)cc2)cc1 [Chloroxuron] | 175.3 | 174.9 | 183.1 | – | – |
| CN(C)CCC(c1ccc(Cl)cc1)c1ccccn1 (stereo not drawn) [Chlorpheniramine maleate] | 164 | 164.6 | – | – | – |
| CN(C)CCCN1c2ccccc2Sc2ccc(Cl)cc21 [Chlorpromazine hydrochloride] | 170.8 | 171.2 | – | – | – |
| CC(C)OC(=O)Nc1cccc(Cl)c1 [Chlorpropham] | – | – | – | 148.4 | – |
| CCOP(=O)(OCC)Oc1nc(Cl)c(Cl)cc1Cl [Chlorpyrifos oxon] | 162.3 | 162.7 | 171 | – | – |
| NC(=S)c1c(Cl)cccc1Cl [Chlorthiamid] | – | – | – | 135.9 | – |

| Compound | collision cross section in nitrogen [1] [Å²] | collision cross section in nitrogen [2] [Å²] | collision cross section in nitrogen [3] [Å²] | collision cross section in nitrogen [4] [Å²] | further results |
| --- | --- | --- | --- | --- | --- |
| C[N+](C)(C)CCO [Choline hydroxide] | – | – | – | – | collision cross section in nitrogen [6]: 117.7 Å² |
| O=c1cc(-c2ccccc2)oc2cc(O)cc(O)c12 [Chrysin] | 155.4 | 154.8 | – | 157.7 | – |
| Cc1ccccc1CO[C@@H]1C[C@@]2(C(C)C)CC[C@]1(C)O2 [Cinmethylin] | – | – | 169.7 | – | – |
| CCOCCOC(=O)C=Cc1ccc(OC)cc1 [Cinoxate] | – | – | 155.6 | – | – |
| CC(C)(Oc1ccc(C2CC2(Cl)Cl)cc1)C(=O)O (stereo not drawn) [Ciprofibrate] | – | – | – | 171.9 | – |
| CCOC(=O)CC(CC(=O)OCC)(OC(C)=O)C(=O)OCC [Citric acid, triethyl ester, acetate] | – | – | 175.4 | – | – |
| CC(C)=CCCC(C)CC(=O)O (stereo not drawn) [Citronellic acid] | – | – | – | 148.8 | – |
| Nc1nc(Cl)nc2c1ncn2[C@H]1C[C@H](O)[C@@H](CO)O1 [Cladribine] | 157.2 | 157 | 165.8 | 159.5 | – |
| CCSC(C)CC1CC(=O)C(C(CC)=NOC/C=C/Cl)=C(O)C1 (stereo not drawn) [Clethodim] | 187.7 | 187.7 | 184.9 | 184.6 | – |
| C#CCOC(=O)[C@@H](C)Oc1ccc(Oc2ncc(Cl)cc2F)cc1 [Clodinafop-propargyl] | – | 178 | 176.2 | – | – |
| CCc1c(C(=O)O)c(=O)cnn1-c1ccc(Cl)cc1 [Clofencet-potassium] | 159.2 | 159 | 175.3 | 160.5 | – |
| CN(C)CCCN1c2ccccc2CCc2ccc(Cl)cc21 [Clomipramine hydrochloride] | 174.5 | 174.5 | – | – | – |
| Clc1cccc(Cl)c1NC1=NCCN1 [Clonidine hydrochloride] | 147.1 | 146.5 | – | 145.8 | – |
| CCCCCC(C)OC(=O)COc1ccc(Cl)c2cccnc12 (stereo not drawn) [Cloquintocet-mexyl] | 182.1 | 181.9 | 195.1 | – | – |
| CCOc1nc(F)cc2nc(S(=O)(=O)Nc3c(Cl)cccc3C(=O)OC)nn12 [Cloransulam-methyl] | 191 | 190.7 | 192 | 190.2 | – |
| Oc1ccc(Cl)cc1Cc1ccccc1 [Clorophene] | – | – | – | 149.3 | – |
| CN/C(=N\[N+](=O)[O-])NCc1cnc(Cl)s1 [Clothianidin] | – | – | – | 151.8 | – |
| COc1cc2c(c(OC)c1OC)-c1ccc(OC)c(=O)cc1[C@@H](NC(C)=O)CC2 [Colchicine] | 197 | 195.9 | 204.3 | 197.3 | – |
